Columns and labels:
MEK [1] = target: T1, MEK (Homo sapiens, UniProt Q02750); assay: Cascade assay for inhibitors of the MAP kinase pathway (32P incorporation into MBP with GST-MEK and GST-MAPK); format: biochemical; conditions: read-out: % Inhibition In Vitro
Description: Incorporation of ^32P into myelin basic protein (MBP) was assayed in the presence of a glutathione S-transferase fusion protein containing p44MAP kinase (GST-MAPK) and a glutathione S-transferase fusion protein containing p45MEK (GST-MEK). The assay solution contained 20 mM HEPES, pH 7.4, 10 mM MgCl2, 1 mM MnCl2, 1 mM EGTA, 50 µM [γ-^32P]ATP, 10 µg GST-MEK, 0.5 µg GST-MAPK and 40 µg MBP in a final volume of 100 µL. […] Compounds were assessed at 10 µM for ability to inhibit incorporation of ^32P.
To ascertain whether compounds were inhibiting GST-MEK or GST MAPK, two additional protocols were employed. In the first protocol, compounds were added to tubes containing GST-MEK, followed by addition of GST-MAPK, MBP and [γ-^32P]ATP. In the second protocol, compounds were added to tubes containing both GST-MEK and GST-MAPK, followed by MBP and [γ-^32P]ATP.

MEK [2] = target: T1, MEK; assay: as above; format: biochemical; conditions: read-out: % Inhibition In Vitro; remark: listed apart in the source
[3] = tested on: murine colon tumor, C26/clone 10; assay: Murine colon tumor C26/clone 10 implanted subcutaneously in mice, compound given IP or PO on Days 1 through 14; format: in vivo, Male CD2F1 mice; conditions: for Change in Body Weight (grams): Days 1 through 14
Description: Male CD2F1 mice (NCI: Charles River, Kingston) were implanted subcutaneously with tumor fragments (approximately 30 mg) in the region of the right axilla on Day 0. […] The vehicle for the test compound, and for control animals, was 10% EtOH/10% Cremophor-EL (Sigma)/80% H2O, pH 5.0. Tumor volumes were recorded three times per week by measuring the length and width of the individual tumors and calculating mass in milligrams according to the formula (a × b^2)/2, where a and b are the length and width of the tumor. Percent treated/control (T/C) was calculated based on the ratio of the median tumor volume of the treated tumors compared with the median tumor volume of control animals on specified measurement days.

T1 sequence (Q02750 whole entry, the tested form may be a part): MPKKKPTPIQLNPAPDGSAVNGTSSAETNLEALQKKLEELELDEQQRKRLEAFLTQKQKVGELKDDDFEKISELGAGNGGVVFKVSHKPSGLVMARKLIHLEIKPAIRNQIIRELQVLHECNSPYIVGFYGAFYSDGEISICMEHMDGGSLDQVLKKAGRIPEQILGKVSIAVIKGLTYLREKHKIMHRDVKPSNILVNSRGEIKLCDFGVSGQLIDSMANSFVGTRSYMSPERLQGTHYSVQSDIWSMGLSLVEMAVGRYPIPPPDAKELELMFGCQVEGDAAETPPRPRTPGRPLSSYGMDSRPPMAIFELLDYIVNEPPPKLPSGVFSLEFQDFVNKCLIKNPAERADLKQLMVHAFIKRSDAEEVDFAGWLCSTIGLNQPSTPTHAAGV

inhibition at 10 µM (MEK [1]) [%]	inhibition at 1 µM (MEK [2]) [%]	Structure (SMILES)	other results
-3	9	Cc1ccc(Cl)c(Nc2ccccc2C(=O)NO)c1Cl [the 8th table: R6=H, R7=H]	
9	17	Cc1ccc(Cl)c(Nc2ccccc2C(=O)N(O)C(C)C)c1Cl [the 8th table: R6=iPr, R7=H]	
7	-11	Cc1cccc(Nc2ccccc2C(=O)N(O)C(C)C)c1C [the 9th table: R6=iPr, R7=H]	
12	-6	CONC(=O)c1ccccc1Nc1cccc(C)c1C [the 9th table: R6=H, R7=CH3]	
-4	6	Cc1cccc(Nc2ccccc2C(=O)NO)c1C [the 9th table: R6=H, R7=H]	
18	-4	Cc1ccc(Cl)c(Nc2ccccc2C(=O)N(O)Cc2ccccc2)c1Cl [the 8th table: R6=CH2-Ph, R7=H]	
		O=C(NOCC1CC1)c1ccc(F)c(F)c1Nc1ccc(I)cc1Cl [Example 95, 3,4-Difluoro-2-(2-chloro-4-iodo-phenylamino)-N-cyclopropylmethoxy-benzamide]	% T/C (Day 15) ([3]; IP, 48 mg/kg/day): 41%; Change in Body Weight (grams) ([3]; IP, 48 mg/kg/day): +3 grams; % T/C (Day 15) ([3]; IP, 77 mg/kg/day): 2%; Change in Body Weight (grams) ([3]; IP, 77 mg/kg/day): +2 grams; % T/C (Day 15) ([3]; IP, 124 mg/kg/day): 4%; Change in Body Weight (grams) ([3]; IP, 124 mg/kg/day): +3 grams; % T/C (Day 15) ([3]; IP, 200 mg/kg/day): 0%; Change in Body Weight (grams) ([3]; IP, 200 mg/kg/day): +2 grams; % T/C (Day 17) ([3]; PO, 71 mg/kg/day): 36%; Change in Body Weight (grams) ([3]; PO, 71 mg/kg/day): +2 grams; % T/C (Day 17) ([3]; PO, 115 mg/kg/day): 21%; Change in Body Weight (grams) ([3]; PO, 115 mg/kg/day): +2 grams; % T/C (Day 17) ([3]; PO, 186 mg/kg/day): 25%; Change in Body Weight (grams) ([3]; PO, 186 mg/kg/day): +2 grams; % T/C (Day 17) ([3]; PO, 300 mg/kg/day): 17%; Change in Body Weight (grams) ([3]; PO, 300 mg/kg/day): +2 grams
8	-8	CONC(=O)c1ccccc1Nc1c(Cl)ccc(C)c1Cl [the 8th table: R6=H, R7=CH3]	
19	-5	Cc1ccc(Cl)c(Nc2ccccc2C(=O)N(C)O)c1Cl [the 8th table: R6=CH3, R7=H]	
19	13	Cc1cccc(Nc2ccccc2C(=O)N(C)O)c1C [the 9th table: R6=CH3, R7=H]	
